Source: patent US20080161309A1, “Novel Compounds” (priority 2004, published 2008)
Structures can show the parent of a compound that is named as a salt.

Columns and labels:
[1] = Vapor sorption analysis of salts; type: physicochemical; conditions: 90% relative humidity, 25° C.; for moles water uptake per total moles of sample at 90% RH: calculated; for % mass change at 90% RH: compared to original mass of sample
Description: The propensity of besylate, hydrochloride, edisylate and fumarate salts of (2S)-2-[(S)-(4-chloro-2-methoxyphenoxy)(phenyl)methyl]morpholine to absorb water vapor was studied at various relative humidities (RH). The besylate, hydrochloride, and edisylate salts were analysed using a VTI Corporation SGA-100 Symmetric Vapor Sorption Analyzer equipped with a CI Electronics Limited, CI MK2, 1 Gram Microbalance, an EdgeTech MODEL 2000 […] DF DEWPOINT HYGROMETER, and an JULABO USA, Inc F25-HE Refrigerated and Heated Circulator. The following method was used:
The propensity of (2S)-2-[(S)-(4-chloro-2-methoxyphenoxy)(phenyl)methyl]morpholine […] to absorb water was similarly analyzed using a VTI Corporation SGA-100 Symmetric Vapor Sorption Analyzer equipped with a CAHN INSTRUMENTS INC, INC. D-200 Digital Recording Balance, an EdgeTech MODEL 2000 […] DF DEWPOINT HYGROMETER, and a JULABO USA, Inc F25-HD Refrigerated and Heated Circulator.

[2] = system: capsaicin-induced mechanical allodynia; assay: Rat model of capsaicin-induced mechanical allodynia; type: in vivo; conditions: sc, male Sprague-Dawley rats, 10 mg/kg subcutaneously, PWT 1 hour after single dose, mean of eight animals, normalized for vehicle, read-out: % Inhibition of allodynia
Description: Compounds of the present invention may be assayed for their ability to treat fibromylagia—like pain in a rat model of capsaicin-induced mechanical allodynia (e.g., Sluka, K A, (2002) J of Neuroscience, 22(13): 5687-5693). For example, a rat model of capsaicin-induced mechanical allodynia) was be carried out as follows:
On day 0, male Sprague-Dawley rats (˜150 g) in the dark cycle were placed in suspended wire-bottom cages and allowed to acclimate for 0.5 hour in a darkened, quiet room. The day 0 paw withdrawal threshold (PWT) was determined on the left hind paw by Von Frey hair assessment using the Dixon up and down method. After assessment, the plantar muscle of the right hind paw was injected with 100 μl capsaicin (0.25% (w/v) in 10% ethanol, 10% Tween 80, in sterile saline). On day 6 the PWT of the left hindpaw (contralateral from injection site) was determined for each animal. Animals from the day 6 prereads with PWT≦11.7 g were considered allodynic responders and were regrouped so that each cage had similar mean PWT values. On day 7, responders were dosed subcutaneously with 10 mg compound/kg body weight, or with vehicle alone. The vehicle was phosphate buffered saline containing 2% Cremophor® EL (BASF). The contralateral PWT values were determined at 1 hour after the single dose, with the investigator blinded to the dosing scheme.
In addition, the day 6 PWT was subtracted from the day 0 PWT to give the baseline window of allodynia present in each animal.

COc1cc(Cl)ccc1O[C@@H](c1ccccc1)[C@@H]1CNCCO1.O=C(O)/C=C/C(=O)O [fumaric, (2S)-2-[(1S)-(4-chloro-2-methoxyphenoxy) (phenyl)methyl]morpholine fumarate]
moles water uptake per total moles of sample at 90% RH [1]: 0.69 | % mass change at 90% RH [1]: 2.8%

COc1cc(Cl)ccc1O[C@@H](c1ccccc1)[C@@H]1CNCCO1.O=S(=O)(O)c1ccccc1 [besylate, (2S)-2-[(S)-(4-chloro-2-methoxyphenoxy)(phenyl)methyl]morpholine besylate]
moles water uptake per total moles of sample at 90% RH [1]: 0.17 | % mass change at 90% RH [1]: 0.64%

COc1cc(Cl)ccc1O[C@@H](c1ccccc1)[C@@H]1CNCCO1.Cl [Example 38, (2S)-2-[(1S)-(4-chloro-2-methoxyphenoxy) (phenyl)methyl] morpholine hydrochloride]
inhibition in vivo at 10 mg/kg [2]: 59% | moles water uptake per total moles of sample at 90% RH [1]: 0.77 | % mass change at 90% RH [1]: 3.8%

(2S)-2-[(S)-(4-chloro-2-methoxyphenoxy)(phenyl)methyl]morpholine edisylate
moles water uptake per total moles of sample at 90% RH [1]: 1.32 | % mass change at 90% RH [1]: 4.6%

Fc1ccc(OC(c2ccccc2)C2CNCCO2)c(F)c1 (stereo not shown) (as salt: hydrobromid) [Example 7]
melting point: 106.48 °C
